# Like-named read-outs stand apart in the source and are kept apart here.
# What was measured:
# [1] = molecular target: TDP2 (Homo sapiens (Human), UniProt O95551); test: gel-based TDP2 fluorescence assay in vitro; assay type: biochemical; conditions: read-out: TDP2 IC50
# Experimental: (§1) (TDP assay buffer: 50 mM Tris HCl, pH 7.5, 80 mM KCl, 2 mM EDTA, 1 mM DTT, 40 μg/ml BSA and 0.01% Tween-20. TDP1 (20 mg/mL in 25 mM Tris-HCl pH 7.2, 150 mM NaCl, 2 mM tris(2-carboxyethyl)phosphine) with 2 mL of well solution composed of 0.1 M MOPS/HEPES pH 7.5, 10% (w/v) PEG 8000, 20% (v/v) ethylene glycol, 0.03 M sodium fluoride, 0.03 M sodium bromide, 0.03 M sodium iodide, 0.03 M sodium bromide and sealed over […] well solution. AF647 labelling buffer: Tris-HCl (pH 7.2, 25 mM), NaCl (150 mM), and tris(2-carboxyethyl)phosphine hydrochloride (TCEP, 2 mM).)
# (§2) (DNA only: Buffer+DMSO. DMSO only: Enzyme+DMSO. Drug: Enzyme+Drug, 25° C., 10 min+DNA, reaction at 25° C., 15 min.)
# [2] = molecular target: TDP1 (Homo sapiens (Human), UniProt Q9NUW8); test: TDP1 gel-based in vitro fluorescence assay; assay type: biochemical; conditions: for IC50: read-out: TDP1 IC50
# Chain of TDP1 (Q9NUW8 whole entry): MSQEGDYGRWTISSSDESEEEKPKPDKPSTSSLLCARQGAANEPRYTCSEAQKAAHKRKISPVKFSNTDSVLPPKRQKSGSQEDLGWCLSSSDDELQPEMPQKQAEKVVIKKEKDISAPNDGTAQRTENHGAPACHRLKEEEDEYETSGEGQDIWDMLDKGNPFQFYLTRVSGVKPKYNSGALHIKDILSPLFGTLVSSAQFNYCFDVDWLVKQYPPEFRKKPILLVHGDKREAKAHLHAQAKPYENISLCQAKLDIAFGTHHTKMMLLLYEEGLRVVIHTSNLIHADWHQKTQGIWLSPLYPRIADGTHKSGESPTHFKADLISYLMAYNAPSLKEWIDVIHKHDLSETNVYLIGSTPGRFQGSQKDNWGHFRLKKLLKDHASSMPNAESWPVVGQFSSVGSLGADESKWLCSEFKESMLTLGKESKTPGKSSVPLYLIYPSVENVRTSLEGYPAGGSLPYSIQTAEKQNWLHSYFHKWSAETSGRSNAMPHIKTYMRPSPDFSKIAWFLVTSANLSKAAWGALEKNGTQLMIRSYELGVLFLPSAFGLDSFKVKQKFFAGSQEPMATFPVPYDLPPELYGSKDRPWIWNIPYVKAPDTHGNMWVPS
# Experimental: as §1, §2
# Gel images were scanned using a Typhoon FLA 9500 scanner (GE Healthcare) and densitometric analyses were performed using the ImageQuant software (GE Healthcare). The IC50 of TDP1 inhibitors was calculated by comparing the percentage of cleavage product (5′Cy5-[…]-p-3′) to DMSO control.
# [3] = Table 7, HPLC-purified oxime leads
# [4] = Table 7, ratio of IC50 TDP2 to TDP1
# [5] = Table 8, lead compounds with different linkers
# [6] = Table 9, fluorosulfates and sulfonyl fluorides
# Chain of TDP2 (O95551 whole entry, species assumed): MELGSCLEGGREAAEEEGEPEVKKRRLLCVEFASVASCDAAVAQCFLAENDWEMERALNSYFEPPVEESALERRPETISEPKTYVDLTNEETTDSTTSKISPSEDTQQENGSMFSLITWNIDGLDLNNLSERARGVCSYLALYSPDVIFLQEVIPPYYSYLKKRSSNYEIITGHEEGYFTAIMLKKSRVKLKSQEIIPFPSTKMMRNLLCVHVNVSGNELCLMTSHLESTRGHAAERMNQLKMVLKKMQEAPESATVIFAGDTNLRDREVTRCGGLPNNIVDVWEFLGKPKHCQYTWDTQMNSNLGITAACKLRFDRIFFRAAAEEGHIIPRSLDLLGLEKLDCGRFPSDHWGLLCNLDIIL
"IC50 ([1]; Table 10, PROTACs) [µM]","IC50 ([2]; Table 10, PROTACs) [µM]","IC50 [1, 3] [µM]","FC (fold change) [2, 4]",SMILES,also measured
> 100,> 100,–,–,"Cc1ncsc1-c1ccc(CNC(=O)[C@@H]2C[C@@H](O)CN2C(=O)[C@@H](NC(=O)COCCOCCOCCn2cc(-c3ccn4c(Nc5ccc(C(=O)O)cc5)c(-c5ccccc5)nc4c3)nn2)C(C)(C)C)cc1 [XZ683, 4-((7-(1-((S)-13-((2S,4R)-4-Hydroxy-2-((4-(4-methylthiazol-5-yl)benzyl)carbamoyl)pyrrolidine-1-carbonyl)-14,14-dimethyl-11-oxo-3,6,9-trioxa-12-azapentadecyl)-1H-1,2,3-triazol-4-yl)-2-phenylimidazo[1,2-a]pyridin-3-yl)amino)benzoic acid]",–
> 100,> 100,–,–,"Cc1ncsc1-c1ccc(CNC(=O)[C@@H]2C[C@@H](O)CN2C(=O)[C@@H](NC(=O)COCCOCCOCCOCCn2cc(-c3ccn4c(Nc5ccc(C(=O)O)cc5)c(-c5ccccc5)nc4c3)nn2)C(C)(C)C)cc1 [XZ684, 4-((7-(1-((S)-16-((2S,4R)-4-Hydroxy-2-((4-(4-methylthiazol-5-yl)benzyl)carbamoyl)pyrrolidine-1-carbonyl)-17,17-dimethyl-14-oxo-3,6,9,12-tetraoxa-15-azaoctadecyl)-1H-1,2,3-triazol-4-yl)-2-phenylimidazo[1,2-a]pyridin-3-yl)amino)benzoic acid]",–
> 100,> 100,–,–,"O=C(COc1cccc2c1C(=O)N(C1CCC(=O)NC1=O)C2=O)NCCCCn1cc(-c2ccn3c(Nc4ccc(C(=O)O)cc4)c(-c4ccccc4)nc3c2)nn1 (stereo not drawn) [XZ685, 4-((7-(1-(4-(2-((2-(2,6-dioxopiperidin-3-yl)-1,3-dioxoisoindolin-4-yl)oxy)acetamido)butyl)-1H-1,2,3-triazol-4-yl)-2-phenylimidazo[1,2-a]pyridin-3-yl)amino)benzoic acid]",–
> 100,> 100,–,–,"O=C(COc1cccc2c1C(=O)N(C1CCC(=O)NC1=O)C2=O)NCCCCn1cc(COc2ccc(-c3nc4cc(-c5ccccc5)ccn4c3Nc3ccc(C(=O)O)cc3)cc2)nn1 (stereo not drawn) [XZ686, 4-((2-(4-((1-(4-(2-((2-(2,6-Dioxopiperidin-3-yl)-1,3-dioxoisoindolin-4-yl)oxy)acetamido)butyl)-1H-1,2,3-triazol-4-yl)methoxy)phenyl)-7-phenylimidazo[1,2-a]pyridin-3-yl)amino)benzoic acid]",–
> 100,> 100,–,–,"O=C(COc1cccc2c1C(=O)N(C1CCC(=O)NC1=O)C2=O)NCCCCn1cc(COc2ccc(-c3nc4ccccn4c3Nc3ccc(C(=O)O)cc3)cc2)nn1 (stereo not drawn) [XZ688, 4-((2-(4-((1-(4-(2-((2-(2,6-Dioxopiperidin-3-yl)-1,3-dioxoisoindolin-4-yl)oxy)acetamido)butyl)-1H-1,2,3-triazol-4-yl)methoxy)phenyl)imidazo[1,2-a]pyridin-3-yl)amino)benzoic acid]",–
> 100,> 100,–,–,"O=C(COc1cccc2c1C(=O)N(C1CCC(=O)NC1=O)C2=O)NCCCCn1cc(-c2ccc(-c3nc4ccccn4c3Nc3ccc(C(=O)O)cc3)cc2)nn1 (stereo not drawn) [XZ689, 4-((2-(4-(1-(4-(2-((2-(2,6-dioxopiperidin-3-yl)-1,3-dioxoisoindolin-4-yl)oxy)acetamido)butyl)-1H-1,2,3-triazol-4-yl)phenyl)imidazo[1,2-a]pyridin-3-yl)amino)benzoic acid]",–
–,–,> 100,>1,"Cc1cncc(Oc2ccc(/C=N/OCc3ccc(-c4nc5cc(-c6ccccc6)ccn5c4Nc4ccc(C(=O)O)cc4)cc3)cc2)n1 [XZ704, (E)-4-((2-(4-((((4-((6-methylpyrazin-2-yl)oxy)benzylidene)amino)oxy)methyl)phenyl)-7-phenylimidazo[1,2-a]pyridin-3-yl)amino)benzoic acid]",–
–,–,> 100,>2,"O=C(O)c1ccc(Nc2c(-c3ccc(CO/N=C/c4ccc(-c5ccccc5)cc4)cc3)nc3cc(-c4ccccc4)ccn23)cc1 [XZ705, (E)-4-((2-(4-(((([1,1′-Biphenyl]-4-ylmethylene)amino)oxy)methyl)phenyl)-7-phenylimidazo[1,2-a]pyridin-3-yl)amino)benzoic acid]",–
–,–,> 100,–,"Cc1cncc(Oc2ccc(/C=N/OCc3ccc4nc(-c5ccccc5)c(Nc5ccc(C(=O)O)cc5)n4c3)cc2)n1 [XZ707, (E)-4-((6-((((4-((6-methylpyrazin-2-yl)oxy)benzylidene)amino)oxy)methyl)-2-phenylimidazo[1,2-a]pyridin-3-yl)amino)benzoic acid]","IC50 [2, 3]: > 100 µM"
–,–,> 100,>2,"O=C(O)c1ccc(Nc2c(-c3ccc(CO/N=C\c4ccc(-c5cnccn5)cc4)cc3)nc3cc(-c4ccccc4)ccn23)cc1 [XZ709, (Z)-4-((7-Phenyl-2-(4-((((4-(pyrazin-2-yl)benzylidene)amino)oxy)methyl)phenyl)imidazo[1,2-a]pyridin-3-yl)amino)benzoic acid]",–
–,–,> 100,>13,"O=C(O)c1ccc(Nc2c(-c3ccc(CO/N=C\c4ccc(N5CCCC5=O)cc4)cc3)nc3cc(-c4ccccc4)ccn23)cc1 [XZ710, (Z)-4-((2-(4-((((4-(2-Oxopyrrolidin-1-yl)benzylidene)amino)oxy)methyl)phenyl)-7-phenylimidazo[1,2-a]pyridin-3-yl)amino)benzoic acid]",–
–,–,> 100,>2,"Cc1cncc(Oc2ccc(/C=N\OCc3ccc(-c4nc5cc(-c6ccccc6)ccn5c4Nc4ccc(C(=O)O)cc4)cc3)cc2)n1 [XZ711, (Z)-4-((2-(4-((((4-((6-methylpyrazin-2-yl)oxy)benzylidene)amino)oxy)methyl)phenyl)-7-phenylimidazo[1,2-a]pyridin-3-yl)amino)benzoic acid]",–
–,–,> 100,>2,"O=C(O)c1ccc(Nc2c(-c3ccc(CO/N=C\c4ccc(-c5ccccc5)cc4)cc3)nc3cc(-c4ccccc4)ccn23)cc1 [XZ712, (Z)-4-((2-(4-(((([1,1′-Biphenyl]-4-ylmethylene)amino)oxy)methyl)phenyl)-7-phenylimidazo[1,2-a]pyridin-3-yl)amino)benzoic acid]",–
–,–,–,–,"N#Cc1ccc(-c2ccc(Cn3cc(COc4ccc(-c5nc6ccccn6c5Nc5ccc(C(=O)O)cc5)cc4)nn3)cc2)nc1 [XZ721, 4-((2-(4-((1-(4-(5-Cyanopyridin-2-yl)benzyl)-1H-1,2,3-triazol-4-yl)methoxy)phenyl)imidazo[1,2-a]pyridin-3-yl)amino)benzoic acid]","IC50 [1, 5]: > 100 µM; IC50 [2, 5]: 60 ± 17 µM; FC (fold change) ([2]; Table 8, ratio of IC50 TDP2 to TDP1): >1"
–,–,–,–,"O=C(O)c1ccc(Nc2c(-c3ccc(OS(=O)(=O)F)cc3)nc3cc(-c4ccccc4)ccn23)cc1 [XZ728, 4-((2-(4-((Fluorosulfonyl)oxy)phenyl)-7-phenylimidazo[1,2-a]pyridin-3-yl)amino)benzoic acid]","IC50 [1, 6]: > 100 µM; IC50 [2, 6]: > 100 µM"
–,–,–,–,"O=C(O)c1ccc(Nc2c(-c3cccc(OS(=O)(=O)F)c3)nc3cc(-c4ccccc4)ccn23)cc1 [XZ729, 4-((2-(3-((Fluorosulfonyl)oxy)phenyl)-7-phenylimidazo[1,2-a]pyridin-3-yl)amino)benzoic acid]","IC50 [1, 6]: > 100 µM; IC50 [2, 6]: > 100 µM"
> 100,> 100,–,–,"O=C1CCC(N2C(=O)c3cccc(NCCCCCCNCc4ccc(-c5nc6cc(-c7ccccc7)ccn6c5Nc5ccc(C(=O)O)cc5)cc4)c3C2=O)C(=O)N1 (stereo not drawn) [XZ742, 4-((2-(4-(((6-((2-(2,6-Dioxopiperidin-3-yl)-1,3-dioxoisoindolin-4-yl)amino)hexyl)amino)methyl)phenyl)-7-phenylimidazo[1,2-a]pyridin-3-yl)amino)benzoic acid]",–
> 100,> 100,–,–,"O=C1CCC(N2C(=O)c3cccc(OCCOCCOCc4cn(Cc5ccc(-c6nc7cc(-c8ccccc8)ccn7c6Nc6ccc(C(=O)O)cc6)cc5)nn4)c3C2=O)C(=O)N1 (stereo not drawn) [XZ743, 4-((2-(4-((4-((2-(2-((2-(2,6-Dioxopiperidin-3-yl)-1,3-dioxoisoindolin-4-yl)oxy)ethoxy)ethoxy)methyl)-1H-1,2,3-triazol-1-yl)methyl)phenyl)-7-phenylimidazo[1,2-a]pyridin-3-yl)amino)benzoic acid]",–

SMILES,"IC50 ([1]; Table 10, PROTACs) [µM]","IC50 ([2]; Table 10, PROTACs) [µM]","IC50 [1, 3] [µM]","FC (fold change) [2, 4]",also measured
"N#Cc1ccc(-c2ccc(/C=N\OCc3ccc4nc(-c5ccccc5)c(Nc5ccc(C(=O)O)cc5)n4c3)cc2)nc1 [XZ717, (Z)-4-((6-((((4-(5-Cyanopyridin-2-yl)benzylidene)amino)oxy)methyl)-2-phenylimidazo[1,2-a]pyridin-3-yl)amino)benzoic acid]",–,–,> 100,>2,"IC50 [2, 3]: 50.3 ± 10.7 µM"
"O=C1CCC(N2C(=O)c3cccc(NCCc4cn(Cc5ccc(-c6nc7cc(-c8ccccc8)ccn7c6Nc6ccc(C(=O)O)cc6)cc5)nn4)c3C2=O)C(=O)N1 (stereo not drawn) [XZ749, 4-((2-(4-((4-(2-((2-(2,6-Dioxopiperidin-3-yl)-1,3-dioxoisoindolin-4-yl)amino)ethyl)-1H-1,2,3-triazol-1-yl)methyl)phenyl)-7-phenylimidazo[1,2-a]pyridin-3-V)amino)benzoic acid]",16.8 ± 0.3,12.3 ± 1.5,–,–,–

# Reference: US20250011330A1, “Imidazo[1,2- a]pyrazine and Imidazo[1,2- a]pyridine Based Tyrosyl-DNA Phosphodiesterase I (TDP1) Inhibitors” (The USA, As Represented by the Secretary, Department of …, priority 2021, published 2025)
